13 compounds from patent US7825256B2, “Inducible nitric oxide synthase dimerization inhibitors” (Kalypsys, Inc., priority 2004, dated 2010) can be followed below.

Counter-ions that a name gives are not always drawn. Where only a bound is given, the exact number is not on record here.

The target of the test is T1, hiNOS (Homo sapiens, UniProt P35228).
T1 construct: expressed in transfected cells; host or cells: HEK293
Description: DAN assay, hiNOS expressed in transiently transfected HEK293 cells. The test is classed as cell-based. The settings on record: HEK293 cells transiently transfected with hiNOS. An excerpt:
The source of nitric oxide synthase (NOS) enzyme can be generated in several ways including induction of endogenous iNOS using cytokines and/or lipopolysaccharide (LPS) in various cell types known in the art. Alternatively, the gene encoding the enzyme can be cloned and the enzyme can be generated in cells via heterologous expression from a transient or stable expression plasmid with suitable features for protein expression as are known in the art. Enzymatic activity (nitric oxide production) is calcium independent for iNOS, while the constitutive NOS isoforms, nNOS and eNOS, become active with the addition of various cofactors added to cellular media or extract as are well known in the art. Enzymes specified in Table 1 were expressed in HEK293 cells transiently transfected with the indicated NOS isoform.
A major metabolic pathway for nitric oxide is to nitrate and nitrite, which are stable metabolites within tissue culture, tissue, plasma, and urine (S Moncada, A Higgs, N Eng J Med 329, 2002 (1993)).
The level of nitrate or nitrite in the specimen can be quantified by any method known in the art which provides adequate sensitivity and reproducibility. A variety of protocols have also been described for detecting and quantifying nitrite and nitrate levels in biological fluids by ion chromatography (e.g., S A Everett et al., J. Chromatogr. 706, 437 (1995); J M Monaghan et al., J. Chromatogr. 770, 143 (1997)), high-performance liquid chromatography (e.g., M Kelm et al., Cardiovasc. Res. 41, 765 (1999)), and capillary electrophoresis (M A Friedberg et al., J. Chromatogr. 781, 491 (1997)). For example, 2,3-diaminonaphthalene reacts with the nitrosonium cation that forms spontaneously from NO to form the fluorescent product […]. Using 2,3-diaminonaphthalene (“DAN”), researchers have developed a rapid, quantitative fluorometric assay that can detect from 10 nM to 10 μM nitrite and is compatible with a multi-well microplate format. […] DAN reacts with nitrite ion and gives fluorescent […] (M C Carré et al., Analysis 27, 835-838 (1999)). Table 1 provides the test results of various compounds of the subject invention using the DAN assay.
A specimen can be processed prior to determination of nitrate or nitrite as required by the quantification method, or in order to improve the results, or for the convenience of the investigator. For example, processing can involve centrifuging, filtering, or homogenizing the sample. If the sample is whole blood, the blood can be centrifuged to remove cells and the nitrate or nitrite assay performed on the plasma or serum fraction. If the sample is tissue, the tissue can be dispersed or homogenized by any method known in the art prior to determination of nitrate or nitrite. It may be preferable to remove cells and other debris by centrifugation or another method and to determine the nitrate or nitrite level using only the fluid portion of the sample, or the extracellular fluid fraction of the sample. The sample can also be preserved for later determination, for example by freezing of urine or plasma samples. When appropriate, additives may be introduced into the specimen to preserve or improve its characteristics for use in the nitrate or nitrite assay.
The “level” of nitrate, nitrite, or other NO-related product usually refers to the concentration (in moles per liter, micromoles per liter, or other suitable units) of nitrate or nitrite in the specimen, or in the fluid portion of the specimen. However, other units of measure can also be used to express the level of nitrate or nitrite. For example, an absolute amount (in micrograms, milligrams, nanomoles, moles, or other suitable units) can be used, particularly if the amount refers back to a constant amount (e.g., grams, kilograms, milliliters, liters, or other suitable units) of the specimens under consideration. A number of commercially available kits can be used.
In the case of `N#CCN(CCCNCc1ccc2c(c1)OCO2)c1nc(-n2ccnc2)ns1` [Example 60, [{3-[(Benzo[1,3]dioxol-5-ylmethyl)-amino]-propyl}-(3-imidazol-1-yl-[1,2,4]thiadiazol-5-yl)-amino]-acetonitrile], the EC50 was < 1 µM.

As to `N=C(CN(CCCNCc1ccc2c(c1)OCO2)c1nc(-n2ccnc2)ns1)NO` [Example 63, 2-[{3-[(Benzo[1,3]dioxol-5-ylmethyl)-amino]-propyl}-(3-imidazol-1-yl-[1,2,4]thiadiazol-5-yl)-amino]-N-hydroxy-acetamidine], the EC50 is < 1 µM.

With `CCOC(=O)CN(CCCNCc1ccc2c(c1)OCO2)c1nc(-n2ccnc2)ns1` [Example 53, [{3-[(Benzo[1,3]dioxol-5-ylmethyl)-amino]-propyl}-(3-imidazol-1-yl-[1,2,4]thiadiazol-5-yl)-amino]-acetic acid ethyl ester], the EC50 is < 1 µM.

For the compound `Cc1cc(C(C)NCCN(C)Cc2ccc3c(c2)OCO3)nc(-n2ccnc2)n1` (single isomer, unassigned) [Example 131, N-Benzo[1,3]dioxol-5-ylmethyl-N-[1-(2-imidazol-1-yl-6-methyl-pyrimidin-4-yl)-ethyl]-N-methyl-ethane-1,2-diamine], the EC50 is < 1 µM.

With `NCCCN(Cc1nccs1)c1nc(-n2ccnc2)ns1` [Example 52, N′-(3-Imidazol-1-yl-[1,2,4]thiadiazol-5-yl)-N′-thiazol-2-ylmethyl-propane-1,3-diamine], the half-maximal effective concentration (EC50) is < 1 µM.

For the compound `CCOC(=O)C1CCC(C(=O)NCCc2ccc3c(c2)OCO3)N1c1nc(-n2ccnc2)ns1` (racemic) [Example 94, 5-(2-Benzo[1,3]dioxol-5-yl-ethylcarbamoyl)-1-(3-imidazol-1-yl-[1,2,4]thiadiazol-5-yl)-pyrrolidine-2-carboxylic acid ethyl ester], the EC50 was < 1 µM.

`Cc1cc(C(C)(C)NCCNCc2ccc3c(c2)OCO3)nc(-n2ccnc2)n1` [Example 77, N-1-(2-(2-(1H-Imidazol-1-yl)-6-methylpyrimidin-4-yl)propan-2-yl)-N-2-(benzo[d][1,3]dioxol-5-ylmethyl)ethane-1,2-diamine hydrochloride]: the 50% effective concentration (EC50) was < 1 µM.

On to `CC(NCCOCc1ccc2c(c1)OCO2)c1nc(-n2ccnc2)ns1` (stereo not shown) [Example 65, [2-(Benzo[1,3]dioxol-5-ylmethoxy)-ethyl]-[1-(3-imidazol-1-yl-[1,2,4]thiadiazol-5-yl)-ethyl]-amine], for which the concentration giving a half-maximal response (EC50) is < 1 µM.

Take `CN(CC1CCN(Cc2ccc3c(c2)OCO3)C1)c1nc(-n2ccnc2)ns1` (stereo not shown) [Example 46, (1-Benzo[1,3]dioxol-5-ylmethyl-pyrrolidin-3-ylmethyl)-(3-imidazol-1-yl-[1,2,4]thiadiazol-5-yl)-methyl-amine]: the EC50 was < 1 µM.

Take `CCOC(=O)C(NC(=O)CNCc1ccc2c(c1)OCO2)c1cc(C)nc(-n2ccnc2)n1` (stereo not shown) [Example 41, {2-[(Benzo[1,3]dioxol-5-ylmethyl)-amino]-acetylamino}-(2-imidazol-1-yl-6-methyl-pyrimidin-4-yl)-acetic acid ethyl ester]: the EC50 was < 1 µM.

On to `CSc1ccc(CN(CCCNCc2ccc3c(c2)OCO3)c2nc(-n3ccnc3)ns2)cc1` [Example 104, N′-Benzo[1,3]dioxol-5-ylmethyl-N-(3-imidazol-1-yl-[1,2,4]thiadiazol-5-yl)-N-(4-methylsulfanyl-benzyl)-propane-1,3-diamine], for which the concentration for a half-maximal effect (EC50) is < 1 µM.

Turning to `CN(CCCNCCc1ccc2c(c1)OCCO2)c1nc(-n2ccnc2)ns1` [Example 85, N′-[2-(2,3-Dihydro-benzo[1,4]dioxin-6-yl)-ethyl]-N-(3-imidazol-1-yl-[1,2,4]thiadiazol-5-yl)-N-methyl-propane-1,3-diamine], the EC50 is < 1 µM.

Regarding `Cc1cc(CNC(=O)C2CCCN2Cc2ccccn2)nc(-n2ccnc2)n1` (stereo not shown) [Example 109, 1-Pyridin-2-ylmethyl-pyrrolidine-2-carboxylic acid (2-imidazol-1-yl-6-methyl-pyrimidin-4-ylmethyl)-amide], the EC50 is > 50 µM.
